Test results: patent US11141403B2, “Benzimidazoles and indoles as taro inhibitors” (MERCK SHARP & DOHME CORP., priority 2015, dated 2021)

Tested on: MRSA COL (MB5393)
Assay: TarO Inhibitor/β-Lactam Synergy Assay
Assay type: cell-based, Staphylococcus aureus
Settings: 20 hours; for IC95: Staphylococcus aureus, TarO inhibitor alone, OD600, 95% growth inhibition, read-out: MITC95 TarO inhibitor alone, Bacteria: SA_MB5393; for MITC95 TarO inhibitor + 4 μg/mL IPM; Bacteria: SA_MB5393: in combination with 4 μg/mL imipenem; for MITC95 TarO inhibitor + 4 μg/mL IPM; Bacteria: SA_MB5393 / MITC95 TarO inhibitor + 8 μg/mL DCX; Bacteria: SA_MB5393: OD600; for MITC95 TarO inhibitor + 8 μg/mL DCX; Bacteria: SA_MB5393: in combination with 8 μg/mL dicloxacillin
Procedure: The TarO inhibitor/β-lactam synergy assay was performed to measure the re-sensitization of methicillin-resistant Staphylococci bacteria (MB5393: MRSA COL) to β-lactam antibiotics by TarO inhibitors. MRSA COL is a hospital-acquired penicillinase-negative clinically isolated strain commonly used in Staphylococcus aureus studies and is fully resistant to the antimicrobial bioactivity of β-lactam antibiotics, including but not limited to imipenem and dicloxacillin. […] MRSA COL is fully refractory to β-lactam antibiotic effect at the current clinical breakpoint concentrations and as such MRSA COL is fully viable at these concentrations.
The β-lactam antibiotic concentration was fixed at the clinical breakpoint (imipenem 4 μg/ml or dicloxacillin 8 μg/ml) and the TarO inhibitors were titrated by 2 fold starting from the highest concentration of 200 μM with final DMSO concentration of 2% in the assay. 5×10^5 colony forming unit of MRSA COL in cation-adjusted Mueller Hinton broth (CAMHB) was then mixed and the assay plate was incubated for 20 hours at 37° C. without shaking. After 20 hours, the optical density at 600 nm (OD600) was read for all wells to determine relative growth of MRSA COL.

SMILES	IC95 [µM]	MITC95 TarO inhibitor + 4 μg/mL IPM; Bacteria: SA_MB5393 [µM]	MITC95 TarO inhibitor + 8 μg/mL DCX; Bacteria: SA_MB5393 [µM]
CCN(C(=O)CCn1c2cccc(C(F)F)c2nc1[C@H]1CC[C@H](C)CC1)C1CCCCC1 [Example 20, N-cyclohexyl-3-[4-(difluoromethyl)-2-(trans-4-methylcyclohexyl)-1H-benzimidazol-1-yl]-N-ethylpropanamide]	100	1.56	12.50
CCN(C(=O)CCn1c(N2CCC(C(C)(C)C)CC2)nc2ccccc21)C1CCCCC1 [Example 58, 3-[2-(4-tert-butylpiperidin-1-yl)-1H-benzimidazol-1-yl]-N-cyclohexyl-N-ethylpropanamide]	> 200	0.02	0.13
CCN(C(=O)CCn1c(C2CCCN(C(=O)OC(C)C)C2)nc2ccccc21)C1CCCCC1 (centres unmarked) [Example 53, 1-methylethyl 3-(1-{3-[cyclohexyl(ethyl)amino]-3-oxopropyl}-1H-benzimidazol-2-yl)piperidine-1-carboxylate]	100	1.56	6.25
CCN(C(=O)CCn1c(N2CCC[C@H](NC(=O)OC(C)(C)C)C2)nc2ccccc21)C1CCCCC1 [Example 59, tert-butyl [(3S)-1-(1-{3-[cyclohexyl(ethyl)amino]-3-oxopropyl}-1H-benzimidazol-2-yl)piperidin-3-yl]carbamate]	> 200	50	150
CN(C(=O)CCn1c(C2CCCCC2)nc2ccccc21)C1CCCCC1 [Example 39, N-cyclohexyl-3-(2-cyclohexyl-1H-benzimidazol-1-yl)-N-methylpropanamide]	> 200	4.69	12.50
CCCCOC(=O)N1CCCC(c2nc3ccccc3n2CCC(=O)N(CC)C2CCCCC2)C1 (centres unmarked) [Example 45, butyl 3-(1-{3-[cyclohexyl(ethyl)amino]-3-oxopropyl}-1H-benzimidazol-2-yl)piperidine-1-carboxylate]	100	0.20	0.78
CCN(C(=O)CCn1c2ccc(F)cc2nc1[C@H]1CC[C@H](CC)CC1)C1CCCCC1 [Example 10, N-cyclohexyl-N-ethyl-3-[2-(trans-4-ethylcyclohexyl)-5-fluoro-1H-benzimidazol-1-yl]propanamide]	> 200	0.004	0.03
CCN(C(=O)CCn1c2cc(Br)ccc2nc1[C@H]1CC[C@H](CC)CC1)C1CCCCC1 [Example 8, 3-[6-bromo-2-(trans-4-ethylcyclohexyl)-1H-benzimidazol-1-yl]-N-cyclohexyl-N-ethylpropanamide]	> 200	0.06	0.22
CCN(C(=O)CCn1c2cccc(F)c2nc1[C@H]1CC[C@H](CC)CC1)C1CCCCC1 [Example 9, N-cyclohexyl-N-ethyl-3-[2-(trans-4-ethylcyclohexyl)-4-fluoro-1H-benzimidazol-1-yl]propanamide]	> 200	0.13	0.79
CCN(C(=O)CCn1c2cc(CN3CC(F)(F)C3)ccc2nc1[C@H]1CC[C@H](CC)CC1)C1CCCCC1 [Example 31, N-cyclohexyl-3-{6-[(3,3-difluoroazetidin-1-yl)methyl]-2-(trans-4-ethylcyclohexyl)-1H-benzimidazol-1-yl}-N-ethylpropanamide]	> 200	6.25	50
CCN(C(=O)CCn1c2c(F)cccc2nc1[C@H]1CC[C@H](CC)CC1)C1CCCCC1 [Example 11, N-cyclohexyl-N-ethyl-3-[2-(trans-4-ethylcyclohexyl)-7-fluoro-1H-benzimidazol-1-yl]propanamide]	> 200	0.40	1.04
CC1CCN(C(=O)CCn2c(C3CCCCC3)nc3ccccc32)CC1 [Example 63, 3-(2-cyclohexyl-1H-benzo[d]imidazol-1-yl)-1-(4-methylpiperidin-1-yl)propan-1-one]	> 200	18.75	
CCN(C(=O)CCn1c2ccc(Br)cc2nc1[C@H]1CC[C@H](CC)CC1)C1CCCCC1 [Example 5, 3-[5-bromo-2-(trans-4-ethylcyclohexyl)-1H-benzimidazol-1-yl]-N-cvclohexyl-N-ethylpropanamide]	> 200	0.01	0.02
CCN(C(=O)CCn1c(CN2CCC(C(C)(C)C)CC2)nc2ccccc21)C1CCCCC1 [Example 60, 3-{2-[(4-tert-butylpiperidin-1-yl)methyl]-1H-benzimidazol-1-yl}-N-cyclohexyl-N-ethylpropanamide]	> 200	0.78	6.25
CCN(C(=O)CCn1c2cc(C#N)ccc2nc1[C@H]1CC[C@H](CC)CC1)C1CCCCC1 [Example 3, 3-[6-cyano-2-(trans-4-ethylcyclohexyl)-1H-benzimidazol-1-yl]-N-cyclohexyl-N-ethylpropanamide]	> 200	4.17	20.83
CCN(C(=O)CCn1c2cc(F)ccc2nc1[C@H]1CC[C@H](CC)CC1)C1CCCCC1 [Example 6, N-cyclohexyl-N-ethyl-3-(2-(trans-4-ethvlcyclohexyl)-6-fluoro-1H-benzo[d]imidazol-1-yl)propanamide]	> 200	0.13	0.59
CCN(C(=O)CCn1c2cc(CN3CCN(CC(F)(F)F)CC3)ccc2nc1[C@H]1CC[C@H](CC)CC1)C1CCCCC1 [Example 30, N-cyclohexyl-N-ethyl-3-[2-(trans-4-ethylcyclohexyl)-6-{[4-(2,2,2-trifluoroethyl)piperazin-1-yl]methyl}-1H-benzimidazol-1-yl]propanamide]	> 200	18.75	25
CCN(C(=O)CCn1c2ccc(C#N)cc2nc1[C@H]1CC[C@H](CC)CC1)C1CCCCC1 [Example 22, 3-[5-cyano-2-(trans-4-ethylcyclohexyl)-1H-benzimidazol-1-yl]-N-cyclohexyl-N-ethylpropanamide]	> 200	0.36	0.88
CCN(C(=O)CCn1c2ncccc2nc1[C@H]1CC[C@H](CC)CC1)C1CCCCC1 [Example 19, N-cyclohexyl-N-ethyl-3-[2-(trans-4-ethylcyclohexyl)-3H-imidazo[4,5-b]pyridin-3-yl]propanamide]	> 200	1.95	28.13
CCN(C(=O)CCn1c2ccc(CO)cc2nc1[C@H]1CC[C@H](CC)CC1)C1CCCCC1 [Example 1, N-cyclohexyl-N-ethyl-3-(2-(trans-4-ethylcyclohexyl)-5-(hydroxymethyl)-1H-benzo[d]imidazol-1-yl)propanamide]	> 200	1.82	6.25
CCN(C(=O)CCn1c2cnccc2nc1[C@H]1CC[C@H](CC)CC1)C1CCCCC1 [Example 4, N-cyclohexyl-N-ethyl-3-[2-(trans-4-ethylcyclohexyl)-3H-imidazo[4,5-c]pyridin-3-yl]propanamide]	> 200	4.17	41.67
CCN(C(=O)CCn1c2ccncc2nc1[C@H]1CC[C@H](CC)CC1)C1CCCCC1 [Example 17, N-cyclohexyl-N-ethyl-3-[2-(trans-4-ethylcyclohexyl)-1H-imidazo[4,5-c]pyridin-1-yl]propanamide]	> 200	0.98	6.25
CCN(C(=O)CCn1c2cc(CN)ccc2nc1[C@H]1CC[C@H](CC)CC1)C1CCCCC1 [Example 27, 3-[6-(aminomethyl)-2-(trans-4-ethylcyclohexyl)-1H-benzimidazol-1-yl]-N-cyclohexyl-N-ethylpropanamide]	> 200	37.50	50
CCN(C(=O)CCn1c(-c2ccc(-n3ccnn3)cc2)nc2ccccc21)C1CCCCC1 [Example 42, N-cyclohexyl-N-ethyl-3-{2-[4-(1H-1,2,3-triazol-1-yl)phenyl]-1H-benzimidazol-1-yl}propanamide]	> 200	18.75	25.00
